Values belong to the compound of their own block, whether it stands above or below them.
Experiment: solvent given as SMILES
[1] = in O=P(c1ccccc1)(c1ccccc1)c1ccc2oc3ccc(P(=O)(c4ccccc4)c4ccccc4)cc3c2c1

SMILES: CCNc1ccc2c(C(F)(F)F)cc(=O)oc2c1
fluorescence lifetime (in C1CCC2CCCCC2C1): 3.67 ns | fluorescence lifetime (in C1CCCCC1): 3.56 ns | fluorescence lifetime (in CC1CCCCC1): 3.55 ns | fluorescence lifetime (in CC#N): 5.23 ns | fluorescence lifetime (in CC(C)=O): 5.08 ns | fluorescence lifetime (in CC(C)O): 5.14 ns | fluorescence lifetime (in CCC(C)CC): 3.39 ns | fluorescence lifetime (in CCCC(C)C): 3.38 ns | fluorescence lifetime (in CCCCCC): 3.3 ns | fluorescence lifetime (in CCCCCCO): 5.23 ns | fluorescence lifetime (in CCCCO): 5.24 ns | fluorescence lifetime (in CCO): 5.04 ns | fluorescence lifetime (in CCOC(C)=O): 4.83 ns | fluorescence lifetime (in CO): 4.84 ns

fluorescence lifetime (in ClCCl): 4.53 ns
SMILES: COc1cc(OC)cc(C2=[O+][B-](F)(F)OC(c3cccs3)=C2)c1

fluorescence lifetime (in C1CCOC1): 1.2 ns
SMILES: CC(=O)c1ccc(-c2ccc3c(c2)C(=O)c2cc(-c4ccc(C(C)=O)cc4)ccc2-3)cc1

SMILES: CSc1nc(-c2ccc(-n3c4ccccc4c4ccccc43)cc2)cc(-c2ccc(-n3c4ccccc4c4ccccc43)cc2)n1
fluorescence lifetime (in C1CCOC1): 3.22 ns | fluorescence lifetime (in CN(C)C=O): 7.39 ns | fluorescence lifetime (in Cc1ccccc1): 1.45 ns | fluorescence lifetime (in ClC(Cl)Cl): 3.24 ns

fluorescence lifetime (in C1CCOC1): 6.9 ns
SMILES: COc1ccc(C(=Cc2ccc(C#N)cc2)c2ccc(OC)cc2)cc1

fluorescence lifetime (in CC#N): 1.01 ns
SMILES: Cc1ccc(-c2ccc(/C=C/c3ccc(Cl)cc3)cn2)nc1

fluorescence lifetime (in CC#N): 131 ns
SMILES: COC(=O)C12N=N[C@](C(=O)OC)(C3C4C=CC(C4)C31)[C@@H]1C[C@H]12 (stereo partly drawn)

fluorescence lifetime (in CC#N): 6.03 ns | fluorescence lifetime (in ClCCl): 8.14 ns
SMILES: CCN(CC)c1ccc(/N=N/c2nc3ccc([N+](=O)[O-])cc3s2)cc1

SMILES: CCN(CC)c1ccc2cc(/C=C/C(=C(C#N)C#N)c3ccc4c(c3)c3ccccc3n4CC)c(=O)oc2c1
fluorescence lifetime (in CC(C)=O): 4.49 ns | fluorescence lifetime (in CCOC(C)=O): 3.49 ns | fluorescence lifetime (in CN(C)C=O): 4.81 ns | fluorescence lifetime (in CS(C)=O): 4.66 ns | fluorescence lifetime (in Cc1ccccc1): 1.15 ns | fluorescence lifetime (in ClCCl): 3.32 ns

SMILES: Cc1ccccc1C
fluorescence lifetime (in C1CCCCC1): 51 ns

fluorescence lifetime (in ClCCl): 6.2 ns
SMILES: CC(C)(C)c1ccc(N(c2ccccc2)c2ccc3ccc4c(N(c5ccccc5)c5ccc(C(C)(C)C)cc5)ccc5ccc2c3c54)cc1

fluorescence lifetime (in CC1CCCCC1): 1.01 ns | fluorescence lifetime (in CC#N): 1.2 ns | fluorescence lifetime (in CO): 1.28 ns
SMILES: COC(=O)C(NC(=O)OC(C)(C)C)c1ccc2oc(-c3cc(OC)c(OC)c(OC)c3)nc2c1 (stereo not drawn)

fluorescence lifetime (in C1COCCO1): 0.023 ns | fluorescence lifetime (in CC#N): 0.044 ns | fluorescence lifetime (in CCO): 0.08 ns | fluorescence lifetime (in OCC(F)(F)F): 0.13 ns
SMILES: Cc1cc(=O)oc2c1cc(Br)c1occ(C)c12

fluorescence lifetime (in C1CCCCC1): 4.12 ns | fluorescence lifetime (in CCOC(C)=O): 3.81 ns | fluorescence lifetime (in CO): 1.67 ns
SMILES: CCCCCCOc1ccc2oc3c(c2c1)=CC1=C(c2ccccc2C)c2cc4c5cc(OCCCCCC)ccc5oc4n2[B-](F)(F)[N+]=31

SMILES: CCCCCCC(CCCCCC)N1C(=O)c2cccc3c(-c4cc(OC)c(OC)c(OC)c4)ccc(c23)C1=O
fluorescence lifetime (in CCCCCC): 2.03 ns | fluorescence lifetime (in CCCCCCCCCCCCCC): 2.78 ns | fluorescence lifetime (in CCCCCCCCCCCO): 1.75 ns | fluorescence lifetime (in CCCCO): 0.208 ns | fluorescence lifetime (in CN(C)C=O): 0.119 ns | fluorescence lifetime (in Cc1ccccc1): 5.4 ns | fluorescence lifetime (in ClC(Cl)Cl): 6.62 ns

fluorescence lifetime (in CN(C)C=O): 2.8 ns
SMILES: O=C1NC(=O)c2ccc3c4ccc5c6c(ccc(c7ccc1c2c73)c64)C(=O)N(c1ccc(O)cc1)C5=O

SMILES: CC(=O)c1ccc2ccc3cccc4ccc1c2c34
fluorescence lifetime (in C1CCOC1): 13.4 ns | fluorescence lifetime (in CC#N): 9.47 ns | fluorescence lifetime (in CCCCCC): 6.56 ns | fluorescence lifetime (in CCO): 0.784 ns | fluorescence lifetime (in CN(C)C=O): 5.34 ns | fluorescence lifetime (in CO): 0.538 ns | fluorescence lifetime (in Cc1ccccc1): 2.8 ns | fluorescence lifetime (in ClCCl): 4.8 ns

fluorescence lifetime (in ClCCl): 2.28 ns
SMILES: CCCCC(CC)COc1ccc2nc(-c3ccc(-c4ccc(N(C)C)cc4)s3)sc2c1 (stereo not drawn)

SMILES: Cc1cccc2c3ccccc3n(-c3ccc(-c4c(-c5ccccc5)c(C#N)c(C#N)c(-c5ccccc5)c4-c4ccc(-n5c6ccccc6c6cccc(C)c65)cc4)cc3)c12
fluorescence lifetime [1]: 41 ns

SMILES: Cc1ccc2c(c1)C(c1ccccc1)(c1ccccc1)c1cc(C)ccc1N2c1ccc2c(c1)N(c1ccccc1)c1ccccc1B2c1c(C(C)C)cc(C(C)C)cc1C(C)C
fluorescence lifetime (in Cc1ccccc1): 5.6 ns | fluorescence lifetime [1]: 8.7 ns

fluorescence lifetime (in C1CCCCC1): 2.7 ns | fluorescence lifetime (in CCOC(C)=O): 0.9 ns
SMILES: CC1=[N+]2C(=C(c3ccc(C=O)cc3)c3ccc(C)n3[B-]2(F)F)C=C1c1cc2n(c1)[B-](F)(F)[N+]1=CC=CC1=C2c1c(C)cc(C)cc1C

fluorescence lifetime (in C1CCOC1): 1.4 ns
SMILES: COc1ccc(C(=Cc2ccc(/C=C(\C#N)c3ccc([N+](=O)[O-])cc3)cc2)c2ccc(OC)cc2)cc1

fluorescence lifetime (in CC#N): 2.66 ns | fluorescence lifetime (in CO): 2.47 ns | fluorescence lifetime (in O): 3.17 ns
SMILES: CN(C)CCCN1c2ccccc2Sc2ccc(C(F)(F)F)cc21

SMILES: O=C1NC(=O)c2c1c1c3ccccc3[nH]c1c1[nH]c3ccccc3c21
fluorescence lifetime (in C1CCOC1): 8.6 ns | fluorescence lifetime (in CC#N): 10 ns | fluorescence lifetime (in CC(C)OC(C)C): 7.3 ns | fluorescence lifetime (in CCCCOCCCC): 8 ns | fluorescence lifetime (in CCO): 7.7 ns | fluorescence lifetime (in CCOC(C)=O): 8.6 ns | fluorescence lifetime (in CN(C)C=O): 13 ns | fluorescence lifetime (in ClCCl): 7.1 ns

SMILES: CC1=[N+]2C(=C(c3ccc(N(C)C)cc3)c3ccc(C)n3[B-]2(F)F)C=C1
fluorescence lifetime (in C1CCCCC1): 2.72 ns | fluorescence lifetime (in Cc1ccccc1): 3.24 ns

SMILES: c1cc2ccc3ccc4cc3c2cc1c1ccc2ccc3ccc(cc3c2c1)c1ccc2ccc3ccc4cc3c2c1
fluorescence lifetime (in Cc1ccccc1): 6.5 ns

fluorescence lifetime (in CC#N): 2.3 ns
SMILES: COc1cc2cc(/C=C/c3ccc(/C=C/c4ccc(/C=C(\C#N)C(=O)O)cc4)cc3)c(=O)oc2cc1OC

fluorescence lifetime (in C1CCOC1): 1.5 ns
SMILES: C(=C\c1ccc(N(c2ccc(/C=C/c3ccc(N(c4ccccc4)c4ccccc4)cc3)cc2)c2ccc(-c3nc4ccccc4nc3-c3ccc(N(c4ccc(/C=C/c5ccc(N(c6ccccc6)c6ccccc6)cc5)cc4)c4ccc(/C=C/c5ccc(N(c6ccccc6)c6ccccc6)cc5)cc4)cc3)cc2)cc1)/c1ccc(N(c2ccccc2)c2ccccc2)cc1

SMILES: N#C[Se]CCCCCOc1ccc2ccc(=O)oc2c1
fluorescence lifetime (in C1CCCCC1): 0.16 ns | fluorescence lifetime (in C1CCOC1): 1.17 ns | fluorescence lifetime (in C1COCCO1): 0.17 ns | fluorescence lifetime (in CC#N): 0.56 ns | fluorescence lifetime (in CCCCCCC): 0.16 ns | fluorescence lifetime (in CCO): 0.43 ns | fluorescence lifetime (in CN(C)C=O): 1.02 ns | fluorescence lifetime (in CO): 0.44 ns | fluorescence lifetime (in O): 1.75 ns | fluorescence lifetime (in OCCO): 1.46 ns

fluorescence lifetime (in C1CCOC1): 4.42 ns
SMILES: COc1ccc(-c2cc3c(cc2OC)-c2c(c4c(c5c2-c2cc(OC)c(-c6ccc(OC)cc6)cc2C5)C(=O)N(CCC(C)C)C4=O)C3)cc1

fluorescence lifetime (in ClCCl): 5.3 ns
SMILES: COc1ccc(C#Cc2c3ccccc3c(C#Cc3ccc(OC)cc3)c3cc4sc(C)cc4cc23)cc1

fluorescence lifetime (in C1CCOC1): 7.1 ns
SMILES: CN(C)c1ccc(C(=Cc2ccc(C#N)cc2)c2ccc(N(C)C)cc2)cc1

SMILES: c1ccc(-c2cc(-c3ccc(N4c5ccccc5C(c5ccccc5)(c5ccccc5)c5ccccc54)cc3)nc(-c3ccccc3)n2)cc1
fluorescence lifetime (in O=P(c1ccccc1)(c1ccccc1)c1ccccc1Oc1ccccc1P(=O)(c1ccccc1)c1ccccc1): 8.02 ns

SMILES: c1ccc(-c2ccc(-c3nc(-n4c5ccccc5c5ccc6c7ccccc7n(-c7ccccc7)c6c54)nc(-n4c5ccccc5c5ccc6c7ccccc7n(-c7ccccc7)c6c54)n3)cc2)cc1
fluorescence lifetime (in Cc1ccccc1): 8.7 ns

fluorescence lifetime (in CC1CCCCC1): 1.28 ns | fluorescence lifetime (in CC#N): 1.87 ns | fluorescence lifetime (in CO): 1.92 ns
SMILES: COC(=O)C(NC(=O)OC(C)(C)C)c1ccc2oc(-c3ccc(C#N)cc3)nc2c1 (stereo not drawn)

fluorescence lifetime (in ClC(Cl)Cl): 4.1 ns
SMILES: Cc1ccc(/C2=c3\cc/c(o3)=C(\c3ccc(C)cc3)c3ccc([nH]3)-c3ccc4n3[B-](F)(F)[N+]3=C(C=CC3=C4c3ccco3)c3ccc2[nH]3)cc1

fluorescence lifetime (in CO): 5.7 ns
SMILES: CC1=CC(C)=[N+]2C1=Cc1ccc(CCC(=O)ON3C(=O)CCC3=O)n1[B-]2(F)F

SMILES: N#Cc1c(-n2c3ccccc3c3ccccc32)c(-n2c3ccccc3c3ccccc32)c(-n2c3ccccc3c3ccccc32)c(-n2c3ccccc3c3ccccc32)c1-n1c2ccccc2c2ccccc21
fluorescence lifetime (in Cc1ccccc1): 3.8 ns | fluorescence lifetime (in c1cc(-c2cccc(-n3c4ccccc4c4ccccc43)c2)cc(-n2c3ccccc3c3ccccc32)c1): 3.2 ns

fluorescence lifetime (in ClC(Cl)Cl): 3.51 ns
SMILES: CCCCCCN1C(=O)c2cccc3c(-c4scc5c4OCCO5)ccc(c23)C1=O

fluorescence lifetime (in ClC(Cl)Cl): 2.64 ns
SMILES: N#Cc1ccc(C#Cc2ccccc2C#N)cc1

fluorescence lifetime (in CC#N): 6.3 ns
SMILES: c1ccc2c(c1)ncc1ccc3cnc4ccccc4c3c12

fluorescence lifetime (in C1CCOC1): 6.5 ns
SMILES: c1ccc(/C(=C(\c2ccccc2)c2cc(-c3ccccc3)ccc2-c2ccccc2)c2cc(-c3ccccc3)ccc2-c2ccccc2)cc1

fluorescence lifetime (in C1CCCCC1): 7.8 ns
SMILES: CC[Si](CC)(CC)Oc1cccc(O[Si](CC)(CC)CC)c1-c1c2ccccc2c(-c2c(O[Si](CC)(CC)CC)cccc2O[Si](CC)(CC)CC)c2ccccc12

fluorescence lifetime (in CS(C)=O): 10.2 ns | fluorescence lifetime (in O): 15.6 ns
SMILES: CCCCCn1c2ccc(S(=O)(=O)O)cc2c(=O)c2cc(S(=O)(=O)O)ccc21

fluorescence lifetime (in O): 17 ns
SMILES: COc1ccc2c(c1)c(=O)c1ccccc1n2CCCCCC(=O)O

fluorescence lifetime (in CS(C)=O): 1.25 ns
SMILES: c1ccc2c(c1)c1ccccc1c1[nH]c(-c3ccc(-c4nc5c6ccccc6c6ccccc6c5[nH]4)cc3)nc21

fluorescence lifetime (in C1CCCCC1): 9.32 ns | fluorescence lifetime (in C1CCOC1): 23.6 ns | fluorescence lifetime (in CC#N): 19.8 ns
SMILES: Cc1ccc2nc3c(nc2c1)c(-c1ccccc1)nn3C

fluorescence lifetime (in CC#N): 1.42 ns
SMILES: COc1ccc(-c2nc(-c3ccc(-c4nc(-c5ccc(OC)cc5)c(-c5ccc(OC)cc5)[nH]4)s3)[nH]c2-c2ccc(OC)cc2)cc1

fluorescence lifetime (in ClCCl): 7.8 ns
SMILES: COc1ccc(-c2c3cc4ccccc4cc3c(-c3ccc(OC)cc3)c3cc4ccccc4cc23)cc1

fluorescence lifetime (in CCO): 1.82 ns
SMILES: Cc1cc(-c2nnc(-c3ccccc3)o2)ccc1-n1c2ccccc2c2ccccc21

fluorescence lifetime (in C1COCCO1): 0.415 ns | fluorescence lifetime (in CC(C)O): 0.399 ns | fluorescence lifetime (in CCCCCC): 0.211 ns | fluorescence lifetime (in CCCCCCC): 0.253 ns | fluorescence lifetime (in CCCCCCCC): 0.299 ns | fluorescence lifetime (in CCCCCCCCO): 0.463 ns | fluorescence lifetime (in CCO): 0.499 ns | fluorescence lifetime (in CO): 1.57 ns
SMILES: COc1ncccc1B(O)O

fluorescence lifetime (in C1CCCCC1): 1 ns | fluorescence lifetime (in ClC(Cl)Cl): 2 ns
SMILES: CN(C)c1ccc(-c2ccc(-c3nc(C#N)c(C#N)n3C)cc2)cc1

SMILES: O=C1O[B-]2(OC1=O)OC(c1ccc3ccccc3c1)=CC(c1ccc3ccccc3c1)=[O+]2
fluorescence lifetime (in CC#N): 4.6 ns | fluorescence lifetime (in ClC(Cl)(Cl)Cl): 1.8 ns

SMILES: Cc1cc(C)c(B(c2c(C)cc(C)cc2C)c2ccc3ccc4cccc5ccc2c3c45)c(C)c1
fluorescence lifetime (in Cc1ccccc1): 3 ns

fluorescence lifetime (in ClC(Cl)Cl): 0.6 ns
SMILES: O=Cc1ccc(C#CC(C#Cc2ccc(C=O)o2)=Cc2ccc(C=C(C#Cc3ccc(C=O)o3)C#Cc3ccc(C=O)o3)cc2)o1

Reference: the Deep4Chem optical property database
